Results from US11117921B2, “Methods for synthesizing nucleotide analogues with disulfide linkers” (IsoPlexis Corporation, priority 2015, dated 2021).

assay: Cleavage experiments with thiol cleavage agents, RP-HPLC (FIG. 77, 78A-B); details: RP-HPLC after 10 minutes of incubation with cleave reagent
Description: In addition to these a variety of suitable cleaving agents can be used such as Bis(2-mercaptoethyl)sulfone (BMS) and N,N′-dimethyl-N,N-bis(mercaptoacetyl)hydrazine (DMH) (Singh et al., Bioorg. Chem., 22, 109-115 (1994). Reactions can be further catalyzed by inclusion of selenols (Singh et al. Anal Biochem. 1995 Nov. 20; 232(1):86-91 [18]). Borohydrides, such as sodium borohydrides can also be used for this purpose (Stahl et al., Anal. Chem., 1957, 29 (1), pp 154-155 [19]) as well as ascorbic acid (Nardai et al., J. Biol. Chem. 276, 8825-8828 (2001)). In addition, enzymatic methods for cleavage of disulfide bonds are also well known such as disulfide and thioreductase and can be used with compounds of the present invention (Holmgren et al., Methods in Enzymology, Volume 252, 1995, Pages 199-208 [21]).

Compound	composition of cleavage reaction mixture (extent of cleavage)
N[C@@H](CS)C(=O)O [L-cysteine]	full cleavage of both linker and the 3′-protective groups
NCCS [cysteamine]	full cleavage of both linker and the 3′-protective groups
OC(=S)CCC(O)=S [dithiosuccinic acid]	selective cleavage of 3′-O-protective group
O[C@H](CS)[C@H](O)CS (racemic) [DTT, dithiothreitol]	full cleavage of both linker and the 3′-protective groups
